Patent publication EP0785211A1, “New substituted 19-nor-pregnane derivatives” (LABORATOIRE THERAMEX, priority 1996, dated 1997)
Where two headings read alike, the source gives them in different places. Marks after values point to notes of the source that are not given here.

Experiments:
[1] = molecular target: T1, human T47-D cell progesterone receptor (Homo sapiens, UniProt P06401); assay: Relative binding affinity to human T47-D cell progesterone receptor (competition against [3H]-ORG 2058); details: for RBA: relative binding affinity, nomegestrol acetate as reference = 100%
T1 construct: Human PR are readily available in high amounts from the T47-D cell line in culture; endogenous in cells; host or cells: T47-D human breast cancer cell line
T1 sequence (P06401 1-933): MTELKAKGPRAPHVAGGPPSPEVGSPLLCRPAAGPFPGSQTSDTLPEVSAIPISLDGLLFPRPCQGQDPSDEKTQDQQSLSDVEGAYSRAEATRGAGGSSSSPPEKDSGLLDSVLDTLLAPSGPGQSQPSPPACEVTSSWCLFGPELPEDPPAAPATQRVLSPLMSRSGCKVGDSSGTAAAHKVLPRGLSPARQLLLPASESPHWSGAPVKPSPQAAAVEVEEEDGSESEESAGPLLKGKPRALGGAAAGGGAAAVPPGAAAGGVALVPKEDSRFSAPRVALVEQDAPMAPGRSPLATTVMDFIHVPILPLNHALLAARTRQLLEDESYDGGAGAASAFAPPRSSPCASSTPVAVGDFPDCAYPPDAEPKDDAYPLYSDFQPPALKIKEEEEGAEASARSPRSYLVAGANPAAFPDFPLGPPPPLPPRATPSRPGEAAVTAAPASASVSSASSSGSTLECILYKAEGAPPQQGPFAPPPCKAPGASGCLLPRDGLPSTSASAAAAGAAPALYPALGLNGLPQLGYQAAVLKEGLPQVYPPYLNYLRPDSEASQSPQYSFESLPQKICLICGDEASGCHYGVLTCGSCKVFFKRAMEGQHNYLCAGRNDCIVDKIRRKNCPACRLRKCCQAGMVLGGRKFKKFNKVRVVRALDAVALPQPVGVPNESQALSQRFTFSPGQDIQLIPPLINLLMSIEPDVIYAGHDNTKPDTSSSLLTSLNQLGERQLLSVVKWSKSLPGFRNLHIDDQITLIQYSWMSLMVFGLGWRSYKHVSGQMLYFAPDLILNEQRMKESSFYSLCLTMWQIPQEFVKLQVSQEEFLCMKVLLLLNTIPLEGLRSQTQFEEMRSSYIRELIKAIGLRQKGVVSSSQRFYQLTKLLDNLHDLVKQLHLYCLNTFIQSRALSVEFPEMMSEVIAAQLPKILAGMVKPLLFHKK
Experimental: Relative binding affinities (RBA) for the human T47-D cell PR are determined as previously described (J. Botella, et al., J. Steroid Biochem. Molec. Biol., 1994, 50 : 41-47) using [^3H]-ORG 2058 as the labelled specific ligand (G. Fleischmann et al., Biochim. Biophys. Acta, 1978, 540 : 500-517) and nomegestrol acetate as the non-radioactive reference progestin. Competitive incubations were performed against 2 nM of [^3H]-ORG 2058 for 3 hours at 4°C with six different concentrations of non-labelled steroid, chosen between 4 and 256 nM following a 1/2^n dilution scheme. Displacement curves were fitted for each experiment, and the concentration inhibiting 50% of the specific binding of [^3H]-ORG 2058 was calculated for each curve (IC50).

[2] = test system: uterus of estrogen-primed immature female rabbits; assay: Clauberg-McPhail test by oral administration (endometrial transformation, "dentelle"); assay type: in vivo, rabbit; details: for Relative activity: relative to nomegestrol acetate = 100%; for ED50: total dose giving mean McPhail grade equal to 2, maximal administered dose 0.75 mg
Source text: The progestative activity of the compounds of formula (I) can be evaluated in two specific experimental models : the affinity for the progesterone receptor (PR) in vitro, and the endometrial tranformation of the rabbit uterus in vivo.
One specific pharmacological test has been standardized in vivo for the detection and quantitation of pseudogestagenic activity since the mid-30's : it is based on the property of the uterus of estrogen-primed immature female rabbits to respond to very slight amounts of progestin by a typical endometrial transformation into a densely packed and interlaced epithelial network called "dentelle". The original test schedule, which includes 6 days of estrogen priming (total subcutaneous dose of 30 µg/rabbit of estradiol benzoate) followed by 5 days of progestative treatment, was designed as early as 1930 by C. Clauberg, Zentr. Gynäkol. 1930, 54 : 2757-2770. The semi-quantitative scale used to grade the intensity of the microscopical appearance of the "dentelle" was set up by M.K. McPhail, J. Physiol (London), 1934, 83, 145-156. This overall Clauberg-McPhail procedure has been extensively used to screen steroids for putative progestative activity in vivo and is still part of the basic hormonal profile of any new progestin such as norgestimate (A. Phillips et al., Contraception, 1987, 36, 181-192) or desogestrel (J. Van der Vies et al.,Arzneim. Forsch./Drug Res. 1983, 33, 231-236).
The progestative potency is inversely related to the dose needed to induce a half-maximal stimulation of the "dentelle", i.e. to record a mean McPhail grade equal to 2. This ED50 is deduced for the dose-response curve and expressed in total dose/rabbit/5 days. All compounds were tested for activity only following oral administration.

[3] = test system: immature castrated male rats; assay: Residual androgenic activity: hypertrophy of ventral prostate and seminal vesicles after 10 daily administrations; assay type: in vivo, rat; details: for Seminal Vesicle / Ventral Prostate: mean ± s.e.m. of 8 animals; for androgenic potential (activity on the growth of male accessory sex organs): result in words, up to 20 mg/animal/day
Source text: The residual androgenic potential is an important feature to evaluate for any new progestin, because it is highly predictive of androgenic side-effects in women. One pharmacological model of androgenic activity has been standardized to screen steroids or related compounds in immature castrated male rats, using the hypertrophy of the ventral prostate and seminal vesicles as the endpoint, following 10 daily administrations (R.I. Dorfman, in Methods in Hormone Research, volume 2, LONDON, Academic Press, 1962 : 275-313; A.G. Hilgar et D.J. Hummel, Androgenic and Myogenic Endocrine Bioassay Data, edited by the U.S. Department of Health, Education and Welfare, […].C., 1964).
Medroxyprogesterone acetate is a 6α-methylpregnene derivative which, besides its main progestative activity, is well-known for its weak androgenic properties (M. Tausk et J. de Visser, In International Encyclopedia of Pharmacology and Therapeutics, Section 48 : Progesterone, Progestational Drugs and Antifertility Agents, volume II, OXFORD, Pergamon Press, 1972 : 35-216); it was therefore chosen as a reference compound in the testing for residual androgenic activity of test examples according to the invention.
The compounds of examples 2 and 7 were tested for residual androgenic properties in the immature castrated male rat model by oral administration (PO), in comparison with medroxyprogesterone acetate, in two different experiments (ventral prostate and seminal vesical hypertrophy), as described above; testosterone was used as a standard androgenic agent by subcutaneous injection (SC).

[4] = Table 3 experiment, SC, 0,05 mg/animal/day
[5] = Table 4 experiment, SC, 0,05 mg/animal/day

Structure (SMILES) | IC50 [1] [nM] | RBA [1] [%] | Relative activity [2] [%] | ED50 [2] | other results
CCO[C@]1(C(C)=O)[C@H]2C[C@H]2[C@H]2[C@@H]3C=C(C)C4=CC(=O)CC[C@@H]4[C@H]3CC[C@@]21C [Example 9, 17α-ethoxy-15β,16β-methylene-6-methyl-20-oxo-19-nor-pregna-4,6-diene] | 32.3 ± 5.3 | 51 | – | – | –
CCO[C@]1(C(C)=O)[C@H]2C[C@H]2[C@H]2[C@@H]3C[C@H](C)C4=CC(=O)CC[C@@H]4[C@H]3CC[C@@]21C [Example 8, 17α-ethoxy-15β,16β-methylene-6α-methyl-3,20-dioxo-19-nor-pregna-4-ene] | – | 78 | 99 | 0.133 mg/rabbit/5 days | IC50 ([1]; against 2 nM [3H]-ORG 2058, 3 hours at 4°C, mean ± s.e.m.): 21.1 ± 6 nM
CC(=O)OC1(C(C)=O)C2CC2C2C3C(C)C(C)C4=CC(=O)CCC4C3CCC21C (stereo not drawn) [Example 10, 17α-acetoxy-6α,7α-dimethyl-15β,16β-methylene-3,20-dioxo-19-nor-pregna-4-ene] | – | – | 22 | 0.600 mg/rabbit/5 days | –
CC(=O)O[C@]1(C(C)=O)C[C@@H](C)[C@H]2[C@@H]3C=C(C)C4=CC(=O)CC[C@@H]4[C@H]3CC[C@@]21C [Example 1, 17α-acetoxy-6,15β-dimethyl-3,20-dioxo-19-nor-pregna-4,6-diene] | 38 ± 10.3 | 43 | < 18 | > 0.750 mg/rabbit/5 days | –
C[C@]12CC[C@H]3[C@@H](CCC4=CC(=O)CC[C@@]43C)[C@@H]1CC[C@@H]2O [Testosterone, reference compound] | – | – | – | – | Seminal Vesicle [3, 4]: 85.9 ± 6.8 mg; Ventral Prostate [3, 4]: 85.1 ± 5.9 mg; Seminal Vesicle [3, 5]: 90.3 ± 6.3 mg; Ventral Prostate [3, 5]: 90.4 ± 4.4 mg
CC(=O)O[C@]1(C(C)=O)[C@H]2C[C@H]2[C@H]2[C@@H]3C[C@H](C)C4=CC(=O)CC[C@@H]4[C@H]3CC[C@@]21C [Example 7, 17α-acetoxy-6α-methyl-15β,16β-methylene-3,20-dioxo-19-nor-pregna-4-ene] | 19.7 ± 3 | 83 | 54 | 0.245 mg/rabbit/5 days | Ventral Prostate ([3]; Table 4 experiment, PO, 20 mg/animal/day, castrated controls 12.0 ± 0.9): 16.5 ± 0.9 mg; Seminal Vesicle ([3]; Table 4 experiment, PO, 20 mg/animal/day, castrated controls 12.3 ± 0.7): 13.9 ± 0.8 ns mg; androgenic potential (activity on the growth of male accessory sex organs) ([3]; PO): very limited androgenic potential
CC(=O)O[C@]1(C(C)=O)CC[C@H]2[C@@H]3C=C(C)C4=CC(=O)CC[C@@H]4[C@H]3CC[C@@]21C [Nomegestrol acetate, reference compound] | – | 100 | 100 | 0.132 ± 0.013^(a) (0.108/0.150/0.138) mg/rabbit/5 days | IC50 ([1]; against 2 nM [3H]-ORG 2058, 3 hours at 4°C, mean ± s.e.m., read-out: IC50): 16.4 ± 1.3 nM
CC(=O)O[C@]1(C(C)=O)C[C@@H](C)[C@H]2[C@@H]3C[C@H](C)C4=CC(=O)CC[C@@H]4[C@H]3CC[C@@]21C [Example 2, 17α-acetoxy-6α,15β-dimethyl-3,20-dioxo-19-nor-pregna-4-ene] | 28.8 ± 5.6 | 57 | 165 | 0.080 mg/rabbit/5 days | Seminal Vesicle ([3]; Table 3 experiment, PO, 20 mg/animal/day, castrated controls 10.4 ± 0.4): 12.1 ± 0.7 ns mg; Ventral Prostate ([3]; Table 3 experiment, PO, 20 mg/animal/day, castrated controls 14.6 ± 1.4): 13.0 ± 1.1 ns mg; androgenic potential (activity on the growth of male accessory sex organs) ([3]; PO): totally devoid of any activity on the growth of male accessory sex organs
CC(=O)O[C@]1(C(C)=O)CC[C@H]2[C@@H]3[C@H](C)[C@H](C)C4=CC(=O)CC[C@@H]4[C@H]3CC[C@@]21C [Example 11, 17α-acetoxy-6α,7α-dimethyl-3,20-dioxo-19-nor-pregna-4-ene] | 25.5 ± 5.3 | 64 | 132 | 0.100 mg/rabbit/5 days | –
CC(=O)O[C@]1(C(C)=O)[C@H]2C[C@H]2[C@H]2[C@@H]3C=C(C)C4=CC(=O)CC[C@@H]4[C@H]3CC[C@@]21C [Example 6, 17α-acetoxy-6-methyl-15β,16β-methylene-3,20-dioxo-19-nor-pregna-4,6-diene] | 21.1 ± 6 | 78 | < 18 | > 0.750 mg/rabbit/5 days | –
